Laboratory results taken from patent US9005575B2, “Arg-Gly-Asp-conjugated alpha-melanocyte stimulating hormone hybrid peptide for use in diagnosing and treating melanoma, including metastatic melanoma and methods related to same” (STC.UNM, priority 2009, dated 2015).
Like-named read-outs stand apart in the source and are kept apart here. Positions of bridges follow the written chain, without caps; N, C: chain ends. Non-standard residues stand in square brackets, D forms with d. Residues, ends and D or L forms follow the SMILES beside them.

Assay: Biodistribution in B16/F1 melanoma-bearing C57 mice
Type: in vivo
Conditions: female, C57, mouse, iv, total radioactivity; for tissue uptake at 2 h / tissue uptake dose at 2 h: 2 h post-injection
Protocol: All the animal studies were conducted in compliance with Institutional Animal Care and Use Committee approval. The pharmacokinetics of ^99mTc-RGD-Lys-(Arg^11)CCMSH was determined in B16/F1 melanoma-bearing C57 female mice (Harlan, Indianapolis, Ind.). C57 mice were subcutaneously inoculated on the right flank with 1×10^6 B16/F1 cells. The weight of tumors reached approximately 0.2 g 10 days post cell inoculation. Each melanoma-bearing mouse was injected with 0.037 MBq of ^99mTc-RGD-Lys-(Arg^11)CCMSH via the tail vein. Groups of 5 mice were sacrificed at 0.5, 2, 4 and 24 h post-injection, and tumors and organs of interest were harvested, weighed and counted. Blood values were taken as 6.5% of the whole-body weight. The MC1 receptor specificity of the tumor uptake was determined at 2 h post-injection by co-injecting ^99mTc-RGD-Lys-(Arg^11)CCMSH with 10 μg (6.1 nmol) of unlabeled NDP-MSH, a linear α-MSH peptide analogue with picomolar affinity for the MC1 receptors present on murine melanoma cells. The co-injection of 3.5 μg (6.1 nmol) of RGD peptide was performed to determine the αvβ3 integrin specificity of the tumor uptake 2 h post-injection. Statistical analysis was performed using the Student's t-test for unpaired data.
All the animal studies were conducted in compliance with Institutional Animal Care and Use Committee approval. The pharmacokinetics of ^99mTc-RGD-Arg-(Arg^11)CCMSH was determined in B16/F1 melanoma-bearing C57 female mice (Harlan, Indianapolis, Ind.). C57 mice were subcutaneously inoculated on the right flank with 1×10^6 B16/F1 cells. The weight of tumors reached approximately 0.2 g 10 days post cell inoculation. Each melanoma-bearing mouse was injected with 0.037 MBq of ^99mTc-RGD-Arg-(Arg^11)CCMSH via the tail vein. Groups of 5 mice were sacrificed at 0.5, 2, 4 and 24 h post-injection, and tumors and organs of interest were harvested, weighed and counted. Blood values were taken as 6.5% of the whole-body weight. The MC1 receptor specificity of the tumor uptake was determined at 2 h post-injection by co-injecting ^99mTc-RGD-Arg-(Arg^11)CCMSH with 10 μg (6.1 nmol) of unlabeled NDP-MSH. The co-injection of 3.5 μg (6.1 nmol) of RGD peptide was performed to determine the αvβ3 integrin specificity of the tumor uptake at 2 h post-injection.

CC(C)[C@H](NC(=O)[C@@H]1CCCN1C(=O)[C@H](CCCNC(=N)N)NC(=O)[C@H](CS)NC(=O)[C@H](Cc1c[nH]c2ccccc12)NC(=O)[C@H](CCCNC(=N)N)NC(=O)[C@@H](Cc1ccccc1)NC(=O)[C@H](Cc1c[nH]cn1)NC(=O)[C@H](CCC(=O)O)NC(=O)[C@H](CS)NC(=O)[C@H](CS)NC(=O)[C@H](CCCNC(=N)N)NC(=O)[C@@H]1CC(=O)N[C@@H](CCCNC(=N)N)C(=O)NCC(=O)N[C@@H](CC(=O)O)C(=O)N[C@H](Cc2ccc(O)cc2)C(=O)N1)C(N)=O [^99mTc-RGD-Arg-(Arg^11)CCMSH, metal not drawn] (RGD[dY]DRCCEH[dF]RWCRPV-NH2; lactam N-5)
tissue uptake at 0.5 h (blood, 0.037 MBq, 0.5 h post-injection, read-out: Blood, Percentage Injected Dose/gram): 3.64 ± 0.69 %ID/g
tissue uptake at 2 h (blood, 0.037 MBq, read-out: Blood, Percentage Injected Dose/gram): 0.55 ± 0.47 %ID/g
tissue uptake at 4 h (blood, 0.037 MBq, 4 h post-injection, read-out: Blood, Percentage Injected Dose/gram): 0.71 ± 0.41 %ID/g
tissue uptake at 24 h (blood, 0.037 MBq, 24 h post-injection, read-out: Blood, Percentage Injected Dose/gram): 0.24 ± 0.14 %ID/g
tissue uptake at 2 h (blood, NDP blockade (10 μg NDP-MSH co-injected), read-out: Blood, Percentage Injected Dose/gram): 0.47 ± 0.29 %ID/g
tissue uptake at 2 h (blood, RGD blockade (3.5 μg RGD co-injected), read-out: Blood, Percentage Injected Dose/gram): 0.04 ± 0.01 %ID/g
tissue uptake at 0.5 h (bone, 0.037 MBq, 0.5 h post-injection, read-out: Bone, Percentage Injected Dose/gram): 2.01 ± 0.19 %ID/g
tissue uptake at 2 h (bone, 0.037 MBq, read-out: Bone, Percentage Injected Dose/gram): 0.57 ± 0.15 %ID/g
tissue uptake at 4 h (bone, 0.037 MBq, 4 h post-injection, read-out: Bone, Percentage Injected Dose/gram): 0.97 ± 0.22 %ID/g
tissue uptake at 24 h (bone, 0.037 MBq, 24 h post-injection, read-out: Bone, Percentage Injected Dose/gram): 0.9 ± 0.39 %ID/g
tissue uptake at 2 h (bone, NDP blockade (10 μg NDP-MSH co-injected), read-out: Bone, Percentage Injected Dose/gram): 0.98 ± 0.39 %ID/g
tissue uptake at 2 h (bone, RGD blockade (3.5 μg RGD co-injected), read-out: Bone, Percentage Injected Dose/gram): 0.52 ± 0.42 %ID/g
tissue uptake at 0.5 h (brain, 0.037 MBq, 0.5 h post-injection, read-out: Brain, Percentage Injected Dose/gram): 0.16 ± 0.02 %ID/g
tissue uptake at 2 h (brain, 0.037 MBq, read-out: Brain, Percentage Injected Dose/gram): 0.06 ± 0.02 %ID/g
tissue uptake at 4 h (brain, 0.037 MBq, 4 h post-injection, read-out: Brain, Percentage Injected Dose/gram): 0.04 ± 0.03 %ID/g
tissue uptake at 24 h (brain, 0.037 MBq, 24 h post-injection, read-out: Brain, Percentage Injected Dose/gram): 0.06 ± 0.02 %ID/g
tissue uptake at 2 h (brain, NDP blockade (10 μg NDP-MSH co-injected), read-out: Brain, Percentage Injected Dose/gram): 0.06 ± 0.01 %ID/g
tissue uptake at 2 h (brain, RGD blockade (3.5 μg RGD co-injected), read-out: Brain, Percentage Injected Dose/gram): 0.04 ± 0.01 %ID/g
tissue uptake at 0.5 h (heart, 0.037 MBq, 0.5 h post-injection, read-out: Heart, Percentage Injected Dose/gram): 2.36 ± 0.37 %ID/g
tissue uptake at 2 h (heart, 0.037 MBq, read-out: Heart, Percentage Injected Dose/gram): 0.73 ± 0.27 %ID/g
tissue uptake at 4 h (heart, 0.037 MBq, 4 h post-injection, read-out: Heart, Percentage Injected Dose/gram): 0.53 ± 0.19 %ID/g
tissue uptake at 24 h (heart, 0.037 MBq, 24 h post-injection, read-out: Heart, Percentage Injected Dose/gram): 0.34 ± 0.07 %ID/g
tissue uptake at 2 h (heart, with RGD peptide, 3.5 μg (6.1 nmol) co-injected, RGD blockade (3.5 μg RGD co-injected), read-out: Heart, Percentage Injected Dose/gram): 0.55 ± 0.22 %ID/g
tissue uptake at 2 h (heart, with unlabeled NDP-MSH, 10 μg (6.1 nmol) co-injected, NDP blockade (10 μg NDP-MSH co-injected), read-out: Heart, Percentage Injected Dose/gram): 0.61 ± 0.21 %ID/g
tissue uptake dose at 0.5 h (intestines, 0.037 MBq, 0.5 h post-injection, read-out: Intestines, Percentage Injected Dose): 3.19 ± 0.22 %ID
tissue uptake dose at 2 h (intestines, 0.037 MBq, read-out: Intestines, Percentage Injected Dose): 2.57 ± 0.58 %ID
tissue uptake dose at 4 h (intestines, 0.037 MBq, 4 h post-injection, read-out: Intestines, Percentage Injected Dose): 2.62 ± 0.57 %ID
tissue uptake dose at 24 h (intestines, 0.037 MBq, 24 h post-injection, read-out: Intestines, Percentage Injected Dose): 1.01 ± 0.11 %ID
tissue uptake dose at 2 h (intestines, NDP blockade (10 μg NDP-MSH co-injected), read-out: Intestines, Percentage Injected Dose): 2.34 ± 0.52 %ID
tissue uptake dose at 2 h (intestines, RGD blockade (3.5 μg RGD co-injected), read-out: Intestines, Percentage Injected Dose): 1.79 ± 0.58 %ID
tissue uptake at 0.5 h (kidneys, 0.037 MBq, 0.5 h post-injection, read-out: Kidneys, Percentage Injected Dose/gram): 37.2 ± 4.72 %ID/g
tissue uptake at 2 h (kidneys, 0.037 MBq, read-out: Kidneys, Percentage Injected Dose/gram): 43 ± 8.14 %ID/g
tissue uptake at 4 h (kidneys, 0.037 MBq, 4 h post-injection, read-out: Kidneys, Percentage Injected Dose/gram): 36.6 ± 11.7 %ID/g
tissue uptake at 24 h (kidneys, 0.037 MBq, 24 h post-injection, read-out: Kidneys, Percentage Injected Dose/gram): 16.2 ± 4.01 %ID/g
tissue uptake at 2 h (kidneys, NDP blockade (10 μg NDP-MSH co-injected), read-out: Kidneys, Percentage Injected Dose/gram): 34.8 ± 8.46 %ID/g
tissue uptake at 2 h (kidneys, RGD blockade (3.5 μg RGD co-injected), read-out: Kidneys, Percentage Injected Dose/gram): 38.5 ± 7.45 %ID/g
tissue uptake at 0.5 h (liver, 0.037 MBq, 0.5 h post-injection, read-out: Liver, Percentage Injected Dose/gram): 4.21 ± 1.04 %ID/g
tissue uptake at 2 h (liver, 0.037 MBq, read-out: Liver, Percentage Injected Dose/gram): 3.58 ± 1.08 %ID/g
tissue uptake at 4 h (liver, 0.037 MBq, 4 h post-injection, read-out: Liver, Percentage Injected Dose/gram): 4.93 ± 0.38 %ID/g
tissue uptake at 24 h (liver, 0.037 MBq, 24 h post-injection, read-out: Liver, Percentage Injected Dose/gram): 1.89 ± 0.36 %ID/g
tissue uptake at 2 h (liver, NDP blockade (10 μg NDP-MSH co-injected), read-out: Liver, Percentage Injected Dose/gram): 2.87 ± 0.34 %ID/g
tissue uptake at 2 h (liver, RGD blockade (3.5 μg RGD co-injected), read-out: Liver, Percentage Injected Dose/gram): 2.3 ± 0.22 %ID/g
tissue uptake at 0.5 h (lung, 0.037 MBq, 0.5 h post-injection, read-out: Lung, Percentage Injected Dose/gram): 7.55 ± 1.29 %ID/g
tissue uptake at 2 h (lung, 0.037 MBq, read-out: Lung, Percentage Injected Dose/gram): 2.05 ± 0.52 %ID/g
tissue uptake at 4 h (lung, 0.037 MBq, 4 h post-injection, read-out: Lung, Percentage Injected Dose/gram): 1.01 ± 0.41 %ID/g
tissue uptake at 24 h (lung, 0.037 MBq, 24 h post-injection, read-out: Lung, Percentage Injected Dose/gram): 0.76 ± 0.14 %ID/g
tissue uptake at 2 h (lung, NDP blockade (10 μg NDP-MSH co-injected), read-out: Lung, Percentage Injected Dose/gram): 1.42 ± 0.31 %ID/g
tissue uptake at 2 h (lung, RGD blockade (3.5 μg RGD co-injected), read-out: Lung, Percentage Injected Dose/gram): 1.21 ± 0.5 %ID/g
tissue uptake at 0.5 h (muscle, 0.037 MBq, 0.5 h post-injection, read-out: Muscle, Percentage Injected Dose/gram): 1.79 ± 1.14 %ID/g
tissue uptake at 2 h (muscle, 0.037 MBq, read-out: Muscle, Percentage Injected Dose/gram): 0.21 ± 0.12 %ID/g
tissue uptake at 4 h (muscle, 0.037 MBq, 4 h post-injection, read-out: Muscle, Percentage Injected Dose/gram): 0.32 ± 0.25 %ID/g
tissue uptake at 24 h (muscle, 0.037 MBq, 24 h post-injection, read-out: Muscle, Percentage Injected Dose/gram): 0.25 ± 0.05 %ID/g
tissue uptake at 2 h (muscle, NDP blockade (10 μg NDP-MSH co-injected), read-out: Muscle, Percentage Injected Dose/gram): 0.5 ± 0.12 %ID/g
tissue uptake at 2 h (muscle, RGD blockade (3.5 μg RGD co-injected), read-out: Muscle, Percentage Injected Dose/gram): 0.28 ± 0.2 %ID/g
tissue uptake (normal organs except kidneys, 0.037 MBq, after 2 h post-injection, read-out: Normal organ uptakes except for the kidneys): < 3.6 %ID/g
tissue uptake at 0.5 h (pancreas, 0.037 MBq, 0.5 h post-injection, read-out: Pancreas, Percentage Injected Dose/gram): 1.02 ± 0.36 %ID/g
tissue uptake at 2 h (pancreas, 0.037 MBq, read-out: Pancreas, Percentage Injected Dose/gram): 0.36 ± 0.2 %ID/g
tissue uptake at 4 h (pancreas, 0.037 MBq, 4 h post-injection, read-out: Pancreas, Percentage Injected Dose/gram): 0.37 ± 0.12 %ID/g
tissue uptake at 24 h (pancreas, 0.037 MBq, 24 h post-injection, read-out: Pancreas, Percentage Injected Dose/gram): 0.19 ± 0.09 %ID/g
tissue uptake at 2 h (pancreas, NDP blockade (10 μg NDP-MSH co-injected), read-out: Pancreas, Percentage Injected Dose/gram): 0.37 ± 0.22 %ID/g
tissue uptake at 2 h (pancreas, RGD blockade (3.5 μg RGD co-injected), read-out: Pancreas, Percentage Injected Dose/gram): 0.32 ± 0.17 %ID/g
tissue uptake at 0.5 h (skin, 0.037 MBq, 0.5 h post-injection, read-out: Skin, Percentage Injected Dose/gram): 4.55 ± 1.01 %ID/g
